From US20250367114A1, “INHALABLE COMPOSITION FOR ENHANCING ALERTNESS AND VITALITY AND DEVICE FOR SUPPLYING THE INHALABLE COMPOSITION” (KT&G CORPORATION, priority 2024, published 2025) come the findings set out here.

This experiment concerns C57BL/6 mice. The experiment in a line: general behavioral experiments (LABORAS) after oral administration of caffeine. Type of experiment: in vivo. The settings on record: for Distance (distance of movement) / Number of times (number of movements) / Speed (speed of movement) / Time (time of movement): measured for an hour. The procedure: The experimental animals were C57BL/6 mice (male, 10 weeks old) purchased from KOATECH after receiving approval from the Institutional Animal Care and Use Committee (IACUC). The experimental animals were acclimatized for a week in the breeding room of the bio-efficacy evaluation center of KT&G (temperature 23±2° C., humidity 50±10%, light-dark cycle 12 hours) and then used in the experiments.
Caffeine was dissolved in a 0.9% saline solution and administered orally to the mice by using Zonde at a dosage of 10 ml/kg, and then general behavioral experiments were conducted. Samples of experimental examples 1 to 3 below were orally administered to the C57BL/6 mice, and then the number of movements, the speed of movement (mm/s), the distance of movement (meter), and the time of movement (sec) for an hour were measured using a LABORAS behavioral device.
Experimental example 1 was a control group, in which only 10 ml/kg of a 0.9% saline solution was orally administered. In experimental example 2, caffeine was dissolved in a 0.9% saline solution at a dose of 5 mg/kg and orally administered by using Zonde. In experimental example 3, caffeine was dissolved in a 0.9% saline solution at a dose of 30 mg/kg and orally administered by using Zonde. With respect to each of experimental examples 1 to 3, the alertness effect of caffeine was verified through general behavioral experiments, and results thereof are shown in Table 1 below.

[1] abbreviates: caffeine 5 mg/kg oral in 0.9% saline.
Where [2] appears, read: caffeine 30 mg/kg oral in 0.9% saline.

For the compound `Cn1c(=O)c2c(ncn2C)n(C)c1=O` [Experimental example 2, caffeine], the “alertness effect (in words)” value (caffeine 5 mg/kg oral) is given as “almost no effect”. Moreover, under setting [1], the “Distance (distance of movement)” value is listed as 20.48 ± 3.27 meter, the “Number of times (number of movements)” value is reported as 532.5 ± 66.33 count, the “Speed (speed of movement)” value was 5.689 ± 0.91 mm/s and the “Time (time of movement)” value came out at 405.65 ± 21.89 s. Besides, under “caffeine 30 mg/kg oral”, the “alertness effect (in words)” value is “alertness effect was observed”. In addition, under setting [2], the “Distance (distance of movement)” value was determined as 33.59 ± 7.85 meter, the “Number of times (number of movements)” value worked out at 1034.5 ± 220.05 count, the “Speed (speed of movement)” value was determined as 9.33 ± 2.18 mm/s and the “Time (time of movement)” value came out at 884.15 ± 154.86 s.
